{"source": "patent US8247349B2", "about": "“Enhanced abscisic acid analog and fertilizer performance” (Valent BioSciences Corporation, priority 2007, dated 2012)", "key": {"tomato plant leaves [1]": {"system": "tomato plant leaves", "assay": "Phytotoxicity study: number of injured leaves after foliar application", "settings": "for Number of injured leaves: 25 ppm ABA analog alone, one foliar application; for Phytotoxicity (in words): 25 ppm alone, 10-day experimental period"}, "[2]": {"system": "tomato leaf transpiration", "assay": "Tomato leaf transpiration inhibition after foliar application (LI-1600 Steady State Porometer)", "type": "in vivo, Tomato (variety: Rutgers)"}, "tomato plant leaves [3]": {"system": "tomato plant leaves", "settings": "in vivo"}}, "note": "Where two headings read alike, the source gives them in different places.", "data": [{"compound": "C#CC1(C)CC(=O)C=C(C)C1(O)/C=C/C(C)=C\\C(=O)OC", "note": "(centres unmarked) [PBI-429, 8′ acetylene-ABA methyl ester]", "values": [{"measurement": "Number of injured leaves", "setting": "tomato plant leaves [1]; 5 days after treatment", "value": 0.0}, {"measurement": "Number of injured leaves", "setting": "tomato plant leaves [1]; 10 days after treatment", "value": 0.0}, {"measurement": "Phytotoxicity (in words)", "setting": "tomato plant leaves [1]", "value": "did not show any phytotoxicity"}, {"measurement": "Transpiration rate (% of control)", "setting": "[2]; 25 ppm alone, 1 day after treatment", "value": "60 % of control"}, {"measurement": "Transpiration rate (% of control)", "setting": "[2]; 25 ppm alone, 2 days after treatment", "value": "42 % of control"}, {"measurement": "Transpiration rate (% of control)", "setting": "[2]; 25 ppm alone, 3 days after treatment", "value": "64 % of control"}, {"measurement": "Transpiration rate (% of control)", "setting": "[2]; 25 ppm alone, 4 days after treatment", "value": "63 % of control"}, {"measurement": "Transpiration rate (% of control)", "setting": "[2]; 25 ppm alone, 7 days after treatment", "value": "87 % of control"}, {"measurement": "Transpiration rate (% of control), Average", "setting": "[2]; 25 ppm alone, average over days 1-7", "value": "63 % of control"}]}, {"compound": "C#CC1(C)CC(=O)C=C(C)C1(O)C=CC(C)=CC(=O)O", "note": "(centres unmarked) [PBI-524, 8′ acetylene-ABA, acid]", "values": [{"measurement": "Number of injured leaves", "setting": "tomato plant leaves [1]; 5 days after treatment", "value": 0.0}, {"measurement": "Number of injured leaves", "setting": "tomato plant leaves [1]; 10 days after treatment", "value": 0.0}, {"measurement": "Phytotoxicity (in words)", "setting": "tomato plant leaves [1]", "value": "did not show any phytotoxicity"}]}, {"compound": "N.N.O=S(=O)(O)O", "note": "[(NH4)2SO4, ammonium sulfate]", "values": [{"measurement": "Phytotoxicity (in words)", "setting": "tomato plant leaves [3]", "value": "showed phytotoxicity"}]}, {"compound": "NC(N)=O", "note": "[Urea, urea]", "values": [{"measurement": "Transpiration rate (% of control)", "setting": "[2]; 1 mM alone, 1 day after treatment", "value": "103 % of control"}, {"measurement": "Transpiration rate (% of control)", "setting": "[2]; 1 mM alone, 2 days after treatment", "value": "98 % of control"}, {"measurement": "Transpiration rate (% of control)", "setting": "[2]; 1 mM alone, 3 days after treatment", "value": "98 % of control"}, {"measurement": "Transpiration rate (% of control)", "setting": "[2]; 1 mM alone, 4 days after treatment", "value": "100 % of control"}, {"measurement": "Transpiration rate (% of control)", "setting": "[2]; 10 mM alone, 1 day after treatment", "value": "101 % of control"}, {"measurement": "Transpiration rate (% of control)", "setting": "[2]; 10 mM alone, 2 days after treatment", "value": "103 % of control"}, {"measurement": "Transpiration rate (% of control)", "setting": "[2]; 10 mM alone, 3 days after treatment", "value": "106 % of control"}, {"measurement": "Transpiration rate (% of control)", "setting": "[2]; 10 mM alone, 4 days after treatment", "value": "101 % of control"}, {"measurement": "Transpiration rate (% of control)", "setting": "[2]; 100 mM alone, 1 day after treatment", "value": "102 % of control"}, {"measurement": "Transpiration rate (% of control)", "setting": "[2]; 100 mM alone, 2 days after treatment", "value": "102 % of control"}, {"measurement": "Transpiration rate (% of control)", "setting": "[2]; 100 mM alone, 3 days after treatment", "value": "107 % of control"}, {"measurement": "Transpiration rate (% of control)", "setting": "[2]; 100 mM alone, 4 days after treatment", "value": "102 % of control"}, {"measurement": "Effect on tomato leaf transpiration (in words)", "setting": "[2]; 1, 10 or 100 mM alone, 4-day experimental period", "value": "Neither urea nor ammonium nitrate at any of three tested concentrations significantly reduced tomato leaf transpiration"}]}]}
